Results published in patent US20260256716A1, “COMPOSITIONS AND METHODS OF USE THEREOF” (Board of Supervisors of Louisiana State University and …, priority 2023, published 2026).

How the values were obtained:
ARPE-19 cells [1] = assay: Hyperglycemia induced SA-β-Gal cellular senescence in ARPE-19 cells (HPLM); type: cell-based, human; details: 10 nM; HPLM with 5, 10, 20 or 30 mM glucose, 72 hours
Procedure: Consistent with Retinal Deterioration by Glucose-Induced Cellular Senescence in the Diabetic Population, Hyperglycemic conditions induce increased disease promoting Cellular Senescence that is abrogated by low nM concentrations of the Representative 5-HT2A Receptor Agonist, R-DOI Returning to Base-line Homeostatic Levels. ARPE-19 cells in physiologically relevant media (HPLM; 7% FCS) were seeded overnight prior to being replaced with starvation media (HPLM 0.5% FCS) containing 10 nM R-DOI. After overnight incubation in starvation media, cells were swapped to media containing diabetic blood glucose levels (HPLM 7% FCS containing 5 mM, 10 mM, 20 mM, or 30 mM glucose) for 72-hours. After the 72-hour incubation, cells were fixed and stained for SA-β-Gal for 6-hours. Cells nuclei were then stained with DAPI for total-cell enumeration. SA-β-Gal positive cells, and total cells per frame, were quantified by microscopy. Pathological/diabetic glucose concentrations induce cellular senescence. 5-HT2A receptor agonism alleviates glucose-induced senescence at diabetic blood glucose levels. […]
Effects of specific phenethylamine 5-HT2A receptor agonists on reduction of Hyperglycemia induced Disease Promoting Cellular Senescence: Inhibition of Cell Senescence and Disease Processes are Drug and Dose Dependent. […] SA-3-Gal positive cells, and total cells per frame, were quantified by microscopy. For each 5-HT2A agonist assessed, the % of senescent cells is expressed relative to the hyperglycemic control. […]
Inhibition of Cell Senescence and Disease Processes are Drug and Dose Dependent. […] SA-β-Gal positive cells, and total cells per frame, were quantified by microscopy. For each 5-HT2A agonist assessed, the % of senescent cells is expressed relative to the hyperglycemic control. […]

ARPE cells [2] = assay: Cumene hydroperoxide induced lipid peroxidation in ARPE cells (BODIPY); type: cell-based, human; details: 100 nM and 1 nM overnight; 100 uM cumene hydroperoxide
Procedure: Representative 5-HT2A Receptor Agonist, R-DOI, Decreases Oxidative stress induced lipid peroxidation at low nM concentrations thereby reversing adverse processes that underlie development and progression of the Pathophysiology of Age-Associated Ocular and Neurodegenerative Diseases. ARPE cells were plated and mock treated or treated with the 5HT2A agonist R-DOI at 100 nM or 1 nM concentrations. Following an overnight incubation, live ARPE cells were labeled with an lipid peroxidation indicator dye BODIPY that changes fluorescence from red to green as it becomes oxidized. Cells were subsequently treated with 100 uM cumene hydroperoxide to induce lipid peroxidation and cellular oxidative stress and imaged in the red and green channels to assess the protective effects of 5HT2A agonists on lipid peroxidation. In the absence of 5HT2A agonists, there was a clear increase in green fluorescence present following treatment with cumene hydroperoxide.

A549 cells = assay: Cell viability after cumene peroxide oxidative stress (Hoechst / propidium iodide); type: cell-based
Procedure: A549 cells were treated with the indicated concentrations of R-DOI (panel A) or 2C-iBu (panel B) and subsequently exposed to cumene peroxide to oxidatively stress cells. Cell viability was visualized by staining with Hoescht (Blue) to mark total cells (live plus dead) and propidium iodide (red) to mark dead cells.

ARPE-19 cells [3] = assay: SA-β-Gal cellular senescence in ARPE-19 cells in nutrient rich media (DMEM); type: cell-based, human; details: 10 nM in starvation media overnight, then DMEM 7% FCS 72 hours
Procedure: ARPE-19 cells in nutrient rich media (DMEM; 7% FCS) were seeded overnight prior to being replaced with starvation media (DMEM; 0.5% FCS) containing 10 nM R-DOI or 10 nM M100,907. After overnight incubation in starvation media with drug, cells were swapped to DMEM 7% FCS media for 72-hours. After the 72-hour incubation, cells were fixed and stained for SA-β-Gal for 6-hours. Cells nuclei were then stained with DAPI for total-cell enumeration. SA-β-Gal positive cells, and total cells per frame, were quantified by microscopy.

ARPE cells [4] = assay: Mitochondrial function and ATP production by Seahorse in ARPE cells; type: cell-based, human; details: 10 fold dilutions 100 nM to 0.001 nM; 48 hours
Procedure: Representative 5-HT2A Receptor Agonist, R-DOI Increases Mitochondrial Function And ATP Production at low nM and sub nanomolar concentrations thereby reversing adverse processes that underlie development and progression of the Pathophysiology of Age-Associated Ocular and Neurodegenerative Diseases. ARPE cells were plated and treated with 10 fold dilutions of R-DOI from 100 nM to 0.001 nM. 48 hours post treatment, mitochondrial function and ATP production was assessed by Seashorse.

[5] = system: NAD synthesis and salvage; assay: RT-PCR of NAD synthesis and salvage pathways / NAD levels; type: cell-based

## COc1cc(C[C@@H](C)N)c(OC)cc1I (single isomer, unassigned) [R-DOI, R enantiomer 2,5-Dimethoxy-4-iodoamphetamine]
ARPE-19 cells [1]
  hyperglycemia induced cellular senescence (SA-β-Gal positive cells): abrogated
ARPE cells [2]
  oxidative stress induced lipid peroxidation: abrogated lipid peroxidation
A549 cells
  oxidative stress-induced cell death: protected cells from oxidative stress-induced cell death
ARPE-19 cells [3]
  cellular senescence (SA-β-Gal positive cells): Decreases Basal Levels of Cellular Senescence
ARPE cells [4]
  ATP production and mitochondrial respiration: increased ATP production and mitochondrial respiration
[5]; higher doses
  NAD levels / NAD synthesis and salvage pathways: causes downregulation of these pathways and decreased NAD levels
[5]; low dose
  NAD levels / NAD synthesis and salvage pathways: increases protective NAD levels
